From paper PMC12720774, “Detergents alter the stability and lipid binding properties of the CD1d immunoreceptor” (Protein Science : A Publication of the Protein Society, 2025)
Values joined by “and” are separate entries in the source; they are usually repeats but may differ in a detail not shown here. Identical values can stand only once. Like-named read-outs stand apart in the source and are kept apart here.

How the values were obtained:
CD1d = test system: CD1d; parameters: method as in Paletta et al., 2015; conditions: ref Paletta et al., 2015; cited from earlier work
[1] = approximate; ref Sigma Aldrich catalogue; cited from earlier work
AF647‐labeled hCD1d = molecular target: T1, AF647‐labeled hCD1d (Homo sapiens, UniProt P15813+P61769); assay: Microscale thermophoresis (MST) binding assay
T1 construct: TEV protease cleavage site ENLYFQS (C); BirA biotinylation site (C); His7 (C); made in house; host or cells: TurboCHO cells (GenScript)
T1 sequence (P61769+P15813 fused): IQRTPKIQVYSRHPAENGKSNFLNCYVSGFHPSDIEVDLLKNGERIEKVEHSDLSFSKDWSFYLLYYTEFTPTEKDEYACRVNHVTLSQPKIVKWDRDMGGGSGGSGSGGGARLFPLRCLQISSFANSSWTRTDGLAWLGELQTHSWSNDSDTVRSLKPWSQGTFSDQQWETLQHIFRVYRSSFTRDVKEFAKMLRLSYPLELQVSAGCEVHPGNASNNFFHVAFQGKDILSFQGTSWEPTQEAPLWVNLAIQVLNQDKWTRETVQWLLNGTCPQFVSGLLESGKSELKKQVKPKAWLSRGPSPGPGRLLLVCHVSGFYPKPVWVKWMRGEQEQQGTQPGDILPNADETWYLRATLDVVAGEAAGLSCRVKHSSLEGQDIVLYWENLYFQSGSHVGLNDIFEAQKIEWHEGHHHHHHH
Description: The experimental limitations of ITF, such as low instrument sensitivity, high sample consumption, signal overlap with some ligands, and low throughput (Fossum et al., [2023]), made it necessary to employ alternative, complementary assays to quantify detergent binding to hCD1d. […] MST measures the diffusion of fluorescent molecules in response to microscopic temperature gradients (Seidel et al., [2013]). When a protein forms a complex with a ligand, changes in hydrodynamic properties, charge, or solvation energy alter its thermophoretic behavior, allowing detection of binding events. To perform MST experiments, Alexa Fluor 647 (AF647) dye was covalently attached to the primary amines of hCD1d via standard N‐hydroxysuccinimide coupling chemistry (Anderson et al., [1964]). The concentration of AF647‐hCD1d was kept constant, and the change in MST signal was measured as a function of increasing detergent concentration (Figure S3). Like ITF, any lipid or detergent that destabilizes CD1 can also alter the MST signal since unfolding changes the protein's Stokes radius and its thermophoretic behavior. […] This is why we compare MST results with ITF and nanoDSF, as described below.
For MST, hCD1d was fluorescently labeled with AF647‐NHS Ester (Invitrogen #A20006). Briefly, a 10 mM stock of AF647‐NHS was prepared in anhydrous DMSO. Then, 100 μL of 50 μM hCD1d in 1X PBS pH 7.4 was mixed with 1 μL of 10 mM AF647‐NHS (1:2 molar ratio of protein: dye). The mixture was allowed to react for 1 h in the dark at 25°C. Unreacted dye was removed from the protein–dye conjugate by performing size exclusion chromatography in the dark with a Superdex 200 Increase 10/300 GL column at a flow rate of 0.5 mL/min in SEC buffer (100 mM NaCl, 20 mM sodium phosphate, pH 7.2). The degree of labeling was determined by a NanoDrop spectrophotometer at A647 nm (dye absorbance) and A280 nm (hCD1d absorbance). The degree of labeling was determined from the ratio of dye concentration to protein concentration. The degree of labeling was ~75%.
MST experiments were performed using a Monolith NT.115 instrument (NanoTemper Technologies) using Monolith standard capillaries and the red excitation laser setup. The following settings were applied for all MST experiments: excitation power: 30%–50%, MST power: medium, before MST time: 3 s, MST on time (IR laser): 20 seconds, and after MST time: 1 s. MST measurements were analyzed using the Monolith Affinity Analysis software v2.3 and exported for plotting in GraphPad Prism v10.1. Three replicates were performed, and data are presented as the mean ± standard deviation (n = 3).
MST measurements of 100 nM AF647‐hCD1d were acquired in the absence and presence of detergents in 1X PBS pH 7.4 at 25°C. Prior to data acquisition, hCD1d and detergent or lipid samples were incubated at 37°C overnight (~12 h) to simulate in vitro and in vivo loading conditions. […] For 18:1 LPC experiments: MST data of 100 nM AF647‐hCD1d were acquired in the absence and presence of 18:1 LPC in 1X PBS pH 7.4 at 25°C.

Which “efficiency of loading α‐GalCer analogues onto CD1d (in words)” value (CD1d) does the source give for Tyloxapol here?
Its value is “more efficient than Tween 20 and Triton X‐100”.

And the CMC [1]?
Its CMC is 18 µM.

And the “Fnorm (rep 1-3)” value (AF647‐labeled hCD1d; 3.05176e-8 M detergent)?
The value was 791.032 ‰ and 791.82 ‰ and 793.917 ‰.

What about the “Fnorm (rep 1-3)” value (AF647‐labeled hCD1d; 6.10352e-8 M detergent) of the same substance?
Its value is 788.237 ‰ and 790.225 ‰ and 792.188 ‰.

What about the “Fnorm (rep 1-3)” value (AF647‐labeled hCD1d; 1.2207e-7 M detergent) of the same substance?
Its value is 789.186 ‰ and 789.645 ‰ and 792.672 ‰.

And the “Fnorm (rep 1-3)” value (AF647‐labeled hCD1d; 2.44141e-7 M detergent)?
Its value is 789.349 ‰ and 791.297 ‰ and 791.601 ‰.

And the “Fnorm (rep 1-3)” value (AF647‐labeled hCD1d; 4.88281e-7 M detergent)?
Its value is 793.87 ‰ and 796.123 ‰ and 800.037 ‰.

And the “Fnorm (rep 1-3)” value (AF647‐labeled hCD1d; 9.76563e-7 M detergent)?
The value was 794.535 ‰ and 800.785 ‰ and 799.868 ‰.

What about the “Fnorm (rep 1-3)” value (AF647‐labeled hCD1d; 1.95313e-6 M detergent) of the same substance?
Its value is 799.667 ‰ and 802.675 ‰ and 807.47 ‰.

And the “Fnorm (rep 1-3)” value (AF647‐labeled hCD1d; 3.90625e-6 M detergent)?
The value was 800.165 ‰ and 807.424 ‰ and 808.195 ‰.

And the “Fnorm (rep 1-3)” value (AF647‐labeled hCD1d; 7.8125e-6 M detergent)?
Its value is 803.847 ‰ and 808.251 ‰ and 810.421 ‰.

What about the “Fnorm (rep 1-3)” value (AF647‐labeled hCD1d; 1.5625e-5 M detergent) of the same substance?
The value was 804.661 ‰ and 807.958 ‰ and 808.866 ‰.

What about the “Fnorm (rep 1-3)” value (AF647‐labeled hCD1d; 3.125e-5 M detergent) of the same substance?
The value was 803.048 ‰ and 809.197 ‰ and 809.196 ‰.

And the “Fnorm (rep 1-3)” value (AF647‐labeled hCD1d; 6.25e-5 M detergent)?
The value was 803.488 ‰ and 807.296 ‰ and 810.346 ‰.

And the “Fnorm (rep 1-3)” value (AF647‐labeled hCD1d; 0.000125 M detergent)?
Its value is 802.129 ‰ and 807.585 ‰ and 809.032 ‰.

What about the “Fnorm (rep 1-3)” value (AF647‐labeled hCD1d; 0.00025 M detergent) of the same substance?
Its value is 803.446 ‰ and 808.163 ‰ and 808.584 ‰.

And the “Fnorm (rep 1-3)” value (AF647‐labeled hCD1d; 0.0005 M detergent)?
Its value is 803.236 ‰ and 807.226 ‰ and 808.719 ‰.

And the “Fnorm (rep 1-3)” value (AF647‐labeled hCD1d; 0.001 M detergent, 100 nM AF647‐hCD1d)?
Its value is 804.928 ‰ and 807.69 ‰ and 809.093 ‰.

What about the Kd (AF647‐labeled hCD1d; Figure 5B, detergent binding to hCD1d, read-out: MST - Kd (uM) average) of the same substance?
The Kd was 0.96 µM.

And the Kd (AF647‐labeled hCD1d; detergent with 100 nM AF647‐labeled hCD1d, 25°C, apparent, read-out: K D (MST))?
Its Kd is 0.9 ± 0.2 µM.
